The values below come from ChEMBL document CHEMBL3272305, “Synthesis and comparative skeletal muscle relaxant activity of some 2,4-imidazolidinediones and their corresponding 5-hydroxy-2,4-imidazolidinediones” (J Med Chem, 1978).

SMILES strings stand for the structures. The source made the active and inactive calls. The calls are words filed in the database; no cut-off is given here.

The first data set relates to Rattus norvegicus. Put plainly: Inhibition of gastrocnemius twitch in Sprague-Dawley rat at cumulative dose of 36.6 mg/kg, iv relative to control. The format is functional.
Settings: not given
As to `O=C1CN(/N=C/c2ccc(-c3ccc(F)cc3)o2)C(=O)N1`, the inhibition in vivo – broadly, the drop in the measured response relative to a control, in per cent – at 36.6 mg/kg is -71%.
Still for that read-out and setting: next, `O=C1NC(=O)N(/N=C/c2ccc(-c3ccc(Cl)c(Cl)c3)o2)C1O` (stereo not drawn): -82%; `O=C1CN(/N=C/c2ccc(-c3cccc(C(F)(F)F)c3)o2)C(=O)N1`: -74%; `Nc1ccc(-c2ccc(/C=N/N3CC(=O)NC3=O)o2)cc1`: -19%.
Turning to `O=C1NC(=O)N(/N=C/c2ccc(-c3ccc(F)cc3)o2)C1O` (stereo not drawn), the inhibition in vivo at 36.6 mg/kg was -53%.
On the same count and under the same terms, then `CC(=O)Nc1ccc(-c2ccc(/C=N/N3CC(=O)NC3=O)o2)cc1`, with 4%; and `O=C1CN(/N=C/c2ccc(-c3ccc(Cl)cc3)o2)C(=O)N1`, with -74%; and `O=C1CN(/N=C/c2ccc(-c3ccc(Cl)c(Cl)c3)o2)C(=O)N1` [CLODANOLENE], with -77%.

Tested on in the next data set: not listed separately
As to the kind of experiment: (§1) Inhibition of twitch in Charles River rat diaphragm at 60 mg/L after 5 mins. The format is functional.
Settings: not given
As for `O=C1CN(/N=C/c2ccc(-c3ccc(F)cc3)o2)C(=O)N1`, the inhibition (as a rule, the share of the control response that was lost under treatment) at 60 µg/mL was at least 40%.
Turning to `O=C1NC(=O)N(/N=C/c2ccc(-c3ccc(Cl)c(Cl)c3)o2)C1O` (stereo not drawn), the inhibition at 60 µg/mL was at least 40%.
Regarding `O=C1CN(/N=C/c2ccc(-c3cccc(C(F)(F)F)c3)o2)C(=O)N1`, the inhibition at 60 µg/mL was at least 40%.
Still for that read-out and setting: next, `O=C1NC(=O)N(/N=C/c2ccc(-c3ccc(F)cc3)o2)C1O` (stereo not drawn): at least 40%; `O=C1CN(/N=C/c2ccc(-c3ccc(Cl)cc3)o2)C(=O)N1`: at least 40%.
The same measure, in the same setting: next, `O=C1CN(/N=C/c2ccc(-c3ccc(Cl)c(Cl)c3)o2)C(=O)N1` [CLODANOLENE]: at least 40%.

The species entered for a further data set is Rattus norvegicus. The data set is described as §1. The format is functional.
Settings: not given
For `Nc1ccc(-c2ccc(/C=N/N3CC(=O)NC3=O)o2)cc1`, the inhibition entry was “inactive”.
On the same count and under the same terms, next, `CC(=O)Nc1ccc(-c2ccc(/C=N/N3CC(=O)NC3=O)o2)cc1`: “inactive”.

Tested on in a further data set: not listed separately
As to the kind of experiment: Therapeutic index, ratio of LD50 for albino mouse to ED50 for induction of straub tail relaxation in albino mouse. The conditions noted are these: in vivo, read-out: Ratio LD50/ED50. The format is organism-based.
Regarding `O=C1CN(/N=C/c2ccc(-c3ccc(F)cc3)o2)C(=O)N1`, the selectivity ratio was 1.5.
Take `O=C1NC(=O)N(/N=C/c2ccc(-c3ccc(Cl)c(Cl)c3)o2)C1O` (stereo not drawn): the selectivity ratio is 6.1.
Same read-out and setting: then `O=C1CN(/N=C/c2ccc(-c3cccc(C(F)(F)F)c3)o2)C(=O)N1`, with 1.4.

Another data set concerns Mus musculus. As to the kind of experiment: Induction of skeletal muscle relaxation in ip dosed albino mouse after 60 mins. The format is functional. The following applies: 1 h.
Take `O=C1CN(/N=C/c2ccc(-c3ccc(F)cc3)o2)C(=O)N1`: the ED50 (in general, the midpoint of the dose-response relation) was determined as 105 mg/kg.
On the same count and under the same terms, next, `O=C1NC(=O)N(/N=C/c2ccc(-c3ccc(Cl)c(Cl)c3)o2)C1O` (stereo not drawn): 72 mg/kg; `O=C1CN(/N=C/c2ccc(-c3cccc(C(F)(F)F)c3)o2)C(=O)N1`: 143 mg/kg; `Nc1ccc(-c2ccc(/C=N/N3CC(=O)NC3=O)o2)cc1`: over 1000 mg/kg.
Still for that read-out and setting: then `O=C1NC(=O)N(/N=C/c2ccc(-c3ccc(F)cc3)o2)C1O` (stereo not drawn), with 1000 mg/kg; and `CC(=O)Nc1ccc(-c2ccc(/C=N/N3CC(=O)NC3=O)o2)cc1`, with over 1000 mg/kg; and `O=C1CN(/N=C/c2ccc(-c3ccc(Cl)cc3)o2)C(=O)N1`, with 1000 mg/kg.
`O=C1CN(/N=C/c2ccc(-c3ccc(Cl)c(Cl)c3)o2)C(=O)N1` [CLODANOLENE] returned an ED50 of 647 mg/kg.

For a further data set, the species on record is Mus musculus. As to the kind of experiment: Induction of muscle incoordination in mouse after 30 mins by rotarod test. The class given is organism-based, Muscle tissue. The following applies: in vivo, 0.5 h. In general terms: Falling from the rotarod earlier than controls is read as motor impairment.
`O=C1CN(/N=C/c2ccc(-c3ccc(F)cc3)o2)C(=O)N1`: the ED50 came out at 369 mg/kg.
Still for that read-out and setting: next, `O=C1NC(=O)N(/N=C/c2ccc(-c3ccc(Cl)c(Cl)c3)o2)C1O` (stereo not drawn): 10 mg/kg; `O=C1CN(/N=C/c2ccc(-c3cccc(C(F)(F)F)c3)o2)C(=O)N1`: 166 mg/kg.
The same measure, in the same setting: then `Nc1ccc(-c2ccc(/C=N/N3CC(=O)NC3=O)o2)cc1`, with over 1000 mg/kg; and `O=C1NC(=O)N(/N=C/c2ccc(-c3ccc(F)cc3)o2)C1O` (stereo not drawn), with 240 mg/kg; and `CC(=O)Nc1ccc(-c2ccc(/C=N/N3CC(=O)NC3=O)o2)cc1`, with over 1000 mg/kg.
The same measure, in the same setting: next, `O=C1CN(/N=C/c2ccc(-c3ccc(Cl)cc3)o2)C(=O)N1`: 40 mg/kg.
`O=C1CN(/N=C/c2ccc(-c3ccc(Cl)c(Cl)c3)o2)C(=O)N1` [CLODANOLENE] showed an ED50 of 181 mg/kg.

A further data set is filed under the species Mus musculus. Put plainly: Muscle relaxant efficacy index, ratio of ED50 for muscle incoordination in mouse to ED50 for induction of straub tail relaxation in albino mouse.
Settings: not given
As to `O=C1CN(/N=C/c2ccc(-c3ccc(F)cc3)o2)C(=O)N1`, the “Ratio ED50” value came to 0.4.
In the case of `O=C1NC(=O)N(/N=C/c2ccc(-c3ccc(Cl)c(Cl)c3)o2)C1O` (stereo not drawn), the “Ratio ED50” value is listed as 0.3.
The same measure, in the same setting: then `O=C1CN(/N=C/c2ccc(-c3cccc(C(F)(F)F)c3)o2)C(=O)N1`, with 0.85; and `O=C1NC(=O)N(/N=C/c2ccc(-c3ccc(F)cc3)o2)C1O` (stereo not drawn), with under 0.24.
Same read-out and setting: next, `O=C1CN(/N=C/c2ccc(-c3ccc(Cl)cc3)o2)C(=O)N1`: under 0.04; `O=C1CN(/N=C/c2ccc(-c3ccc(Cl)c(Cl)c3)o2)C(=O)N1` [CLODANOLENE]: under 0.18.

A further data set concerns Rattus norvegicus. As to the kind of experiment: Inhibition of gastrocnemius twitch in iv dosed Sprague-Dawley rat. The format is functional.
Settings: not given
With `O=C1CN(/N=C/c2ccc(-c3ccc(F)cc3)o2)C(=O)N1`, the 50% effective dose (ED50) was 38 µmol/kg.
Compound `O=C1NC(=O)N(/N=C/c2ccc(-c3ccc(Cl)c(Cl)c3)o2)C1O` (stereo not drawn) returned an ED50 of 19 µmol/kg.
On the same count and under the same terms, then `O=C1CN(/N=C/c2ccc(-c3cccc(C(F)(F)F)c3)o2)C(=O)N1`, with 50 µmol/kg; and `Nc1ccc(-c2ccc(/C=N/N3CC(=O)NC3=O)o2)cc1`, with over 129 µmol/kg; and `O=C1NC(=O)N(/N=C/c2ccc(-c3ccc(F)cc3)o2)C1O` (stereo not drawn), with 91 µmol/kg.
Still for that read-out and setting: next, `CC(=O)Nc1ccc(-c2ccc(/C=N/N3CC(=O)NC3=O)o2)cc1`: over 112 µmol/kg; `O=C1CN(/N=C/c2ccc(-c3ccc(Cl)cc3)o2)C(=O)N1`: 22 µmol/kg.
On the same count and under the same terms, then `O=C1CN(/N=C/c2ccc(-c3ccc(Cl)c(Cl)c3)o2)C(=O)N1` [CLODANOLENE], with 10 µmol/kg.

Another data set has as its system Mus musculus. Put plainly: Induction of skeletal muscle relaxation in po dosed albino mouse after 60 mins. The format is functional. The following applies: 1 h.
Take `O=C1CN(/N=C/c2ccc(-c3ccc(F)cc3)o2)C(=O)N1`: the ED50 stood at 112 mg/kg.
On to `O=C1NC(=O)N(/N=C/c2ccc(-c3ccc(Cl)c(Cl)c3)o2)C1O` (stereo not drawn), for which it took a dose of 109 mg/kg to reach the 50% effect level (ED50).
Still for that read-out and setting: then `O=C1CN(/N=C/c2ccc(-c3cccc(C(F)(F)F)c3)o2)C(=O)N1`, with 647 mg/kg.
The same measure, in the same setting: then `Nc1ccc(-c2ccc(/C=N/N3CC(=O)NC3=O)o2)cc1`, with over 1000 mg/kg; and `O=C1NC(=O)N(/N=C/c2ccc(-c3ccc(F)cc3)o2)C1O` (stereo not drawn), with over 1000 mg/kg.
Same read-out and setting: next, `CC(=O)Nc1ccc(-c2ccc(/C=N/N3CC(=O)NC3=O)o2)cc1`: over 1000 mg/kg; `O=C1CN(/N=C/c2ccc(-c3ccc(Cl)cc3)o2)C(=O)N1`: over 1000 mg/kg; `O=C1CN(/N=C/c2ccc(-c3ccc(Cl)c(Cl)c3)o2)C(=O)N1` [CLODANOLENE]: over 1000 mg/kg.

The next data set is filed under the species Mus musculus. As to the kind of experiment: Induction of straub tail relaxation in albino mouse assessed as gain of righting reflex in 1 min.
Settings: not given
The class given is functional.
Turning to `O=C1CN(/N=C/c2ccc(-c3ccc(F)cc3)o2)C(=O)N1`, the ED50 was 950 mg/kg.
Still for that read-out and setting: next, `O=C1NC(=O)N(/N=C/c2ccc(-c3ccc(Cl)c(Cl)c3)o2)C1O` (stereo not drawn): 34 mg/kg.
Still for that read-out and setting: next, `O=C1CN(/N=C/c2ccc(-c3cccc(C(F)(F)F)c3)o2)C(=O)N1`: 184 mg/kg; `Nc1ccc(-c2ccc(/C=N/N3CC(=O)NC3=O)o2)cc1`: over 1000 mg/kg; `O=C1NC(=O)N(/N=C/c2ccc(-c3ccc(F)cc3)o2)C1O` (stereo not drawn): over 1000 mg/kg.
Same read-out and setting: then `CC(=O)Nc1ccc(-c2ccc(/C=N/N3CC(=O)NC3=O)o2)cc1`, with over 1000 mg/kg; and `O=C1CN(/N=C/c2ccc(-c3ccc(Cl)cc3)o2)C(=O)N1`, with over 1000 mg/kg.
Consider `O=C1CN(/N=C/c2ccc(-c3ccc(Cl)c(Cl)c3)o2)C(=O)N1` [CLODANOLENE], for which the ED50 is over 1000 mg/kg.

Tested on in a further data set: not listed separately
As to the kind of experiment: Toxicity in albino mouse after 72 hrs. The class given is organism-based. The following applies: in vivo.
On to `O=C1CN(/N=C/c2ccc(-c3ccc(F)cc3)o2)C(=O)N1`, for which the LD50 (usually the dose expected to kill half of the subjects tested) at 72 h was found to be 1400 mg/kg.
The same measure, in the same setting: then `O=C1NC(=O)N(/N=C/c2ccc(-c3ccc(Cl)c(Cl)c3)o2)C1O` (stereo not drawn), with 209 mg/kg; and `O=C1CN(/N=C/c2ccc(-c3cccc(C(F)(F)F)c3)o2)C(=O)N1`, with 274 mg/kg; and `Nc1ccc(-c2ccc(/C=N/N3CC(=O)NC3=O)o2)cc1`, with 1040 mg/kg.
On the same count and under the same terms, then `O=C1NC(=O)N(/N=C/c2ccc(-c3ccc(F)cc3)o2)C1O` (stereo not drawn), with 784 mg/kg; and `CC(=O)Nc1ccc(-c2ccc(/C=N/N3CC(=O)NC3=O)o2)cc1`, with 1140 mg/kg; and `O=C1CN(/N=C/c2ccc(-c3ccc(Cl)cc3)o2)C(=O)N1`, with over 6000 mg/kg.
Same read-out and setting: then `O=C1CN(/N=C/c2ccc(-c3ccc(Cl)c(Cl)c3)o2)C(=O)N1` [CLODANOLENE], with over 7000 mg/kg.
